Reference: paper PMC4415909 (Journal of Medicinal Chemistry, 2015)
Structures can show the parent of a compound that is named as a salt. Values belong to the compound of their own block, whether it stands above or below them.

Columns and labels:
hERG = hERG (Homo sapiens, UniProt Q12809); assay: hERG patch clamp assay in hERG-expressing CHO cells; type: cell-based; settings: pH 7.35
[1] = test system: major CYP-P450s (1A2, 2C9, 2D6, 3A4, 2C8, 2C19); assay: Multipoint cocktail DDI IC50 assay, major CYP-P450s; type: in vitro ADME; settings: human, pooled human liver microsomes (HL-MIX-102), pH 7.4
[2] = test system: retinal pigment epithelium (RPE) layer of the eye; settings: cited from earlier work
BACE1 = BACE1 (Homo sapiens, UniProt P56817); type: biochemical
Sequence of BACE1 (P56817 46-457 limits assumed): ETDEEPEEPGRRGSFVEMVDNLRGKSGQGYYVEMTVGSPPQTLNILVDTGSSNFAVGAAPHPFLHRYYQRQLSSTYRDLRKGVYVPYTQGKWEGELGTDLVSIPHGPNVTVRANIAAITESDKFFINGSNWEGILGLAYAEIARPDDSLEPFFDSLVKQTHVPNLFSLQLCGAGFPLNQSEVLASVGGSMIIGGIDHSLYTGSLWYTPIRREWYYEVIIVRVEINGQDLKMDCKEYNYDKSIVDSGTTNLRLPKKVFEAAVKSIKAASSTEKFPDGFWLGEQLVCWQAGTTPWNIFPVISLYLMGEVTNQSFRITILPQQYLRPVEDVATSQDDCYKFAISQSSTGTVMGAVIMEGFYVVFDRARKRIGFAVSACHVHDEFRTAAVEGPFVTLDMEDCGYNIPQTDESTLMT

[3] = Human hepatocyte clearance; type: in vitro ADME; settings: hepatocytes
[4] = cited from earlier work

Sequence of hERG (Q12809 whole entry): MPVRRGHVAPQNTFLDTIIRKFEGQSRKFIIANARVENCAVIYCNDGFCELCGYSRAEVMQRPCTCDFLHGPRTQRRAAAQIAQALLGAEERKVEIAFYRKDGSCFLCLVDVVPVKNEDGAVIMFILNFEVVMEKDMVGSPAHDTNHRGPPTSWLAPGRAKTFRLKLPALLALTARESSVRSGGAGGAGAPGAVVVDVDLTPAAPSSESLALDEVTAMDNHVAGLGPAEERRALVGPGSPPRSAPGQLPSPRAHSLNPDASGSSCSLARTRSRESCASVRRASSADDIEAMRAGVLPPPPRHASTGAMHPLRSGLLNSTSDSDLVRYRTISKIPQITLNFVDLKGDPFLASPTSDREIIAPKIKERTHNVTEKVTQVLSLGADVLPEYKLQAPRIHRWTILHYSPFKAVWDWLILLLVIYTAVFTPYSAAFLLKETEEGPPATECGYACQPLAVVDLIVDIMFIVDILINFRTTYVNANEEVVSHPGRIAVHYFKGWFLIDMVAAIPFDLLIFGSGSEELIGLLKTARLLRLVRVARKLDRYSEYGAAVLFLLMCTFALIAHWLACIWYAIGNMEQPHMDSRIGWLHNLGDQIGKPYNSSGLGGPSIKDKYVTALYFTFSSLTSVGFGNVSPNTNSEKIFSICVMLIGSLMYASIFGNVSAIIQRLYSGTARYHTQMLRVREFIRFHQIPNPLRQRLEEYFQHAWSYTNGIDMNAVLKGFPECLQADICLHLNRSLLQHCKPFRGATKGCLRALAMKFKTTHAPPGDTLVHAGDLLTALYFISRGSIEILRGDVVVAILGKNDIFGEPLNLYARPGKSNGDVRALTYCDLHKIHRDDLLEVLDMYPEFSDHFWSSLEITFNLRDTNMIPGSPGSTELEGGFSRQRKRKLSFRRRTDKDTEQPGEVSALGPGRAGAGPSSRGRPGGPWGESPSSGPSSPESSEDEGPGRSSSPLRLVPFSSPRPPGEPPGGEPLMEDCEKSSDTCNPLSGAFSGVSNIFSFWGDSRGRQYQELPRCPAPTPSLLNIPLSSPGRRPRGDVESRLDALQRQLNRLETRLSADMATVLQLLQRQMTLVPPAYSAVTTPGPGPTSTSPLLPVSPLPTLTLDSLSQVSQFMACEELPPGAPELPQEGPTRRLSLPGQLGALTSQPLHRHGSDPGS

- IC50 [1]: > 30 µM
SMILES: Cc1cc([C@H]2C[C@H]3[C@@H](CF)SC(N)=N[C@@]3(c3ccc(F)cc3F)CO2)on1 [Compound 13, (4S,4aR,6R,8aS)-8a-(2,4-Difluorophenyl)-4-(fluoromethyl)-6-(3-methyl-1,2-oxazol-5-yl)-4,4a,5,6,8,8a-hexahydropyrano[3,4-d][1,3]thiazin-2-amine]
- improvement of hERG margin compared to isoxazole 10 (hERG): greater than 7 fold

SMILES: C[C@@]1(c2cc(-c3cncnc3)c(F)cc2F)CCSC(N)=N1 [LY2811376]
- finding in rat safety studies [2]: accumulation of autofluorescent material and degeneration of the retinal pigment epithelium (RPE) layer of the eye

- improvement of BACE1 potency over compound 2 (BACE1): approximately 10 fold
- hepatocyte CLint [3]: < 6 µL/min/1e6 cells
SMILES: Cn1cc([C@H]2C[C@H]3CSC(N)=N[C@@]3(c3ccc(F)cc3F)CO2)cn1 [Compound 5, (4aR,6R,8aS)-8a-(2,4-Difluorophenyl)-6-(1-methyl-1H-pyrazol-4-yl)-4,4a,5,6,8,8a-hexahydropyrano[3,4-d][1,3]thiazin-2-amine]

- IC50 [1]: > 30 µM
SMILES: Cc1coc([C@H]2C[C@H]3[C@@H](CF)SC(N)=N[C@@]3(c3ccc(F)cc3F)CO2)n1 [Compound 12, (4S,4aR,6R,8aS)-8a-(2,4-Difluorophenyl)-4-(fluoromethyl)-6-(4-methyloxazol-2-yl)-4,4a,5,6,8,8a-hexahydropyrano[3,4-d][1,3]thiazin-2-amine]

- improvement of BACE1 potency over compound 2 (BACE1): approximately 10 fold
SMILES: Cc1cc([C@H]2C[C@H]3CSC(N)=N[C@@]3(c3ccc(F)cc3F)CO2)on1 [Compound 4, (4aR, 6R, 8aS)-8a-(2,4-Difluorophenyl)-6-(3-methyl-1,2-oxazo1-5-yl)-4,4-a,5,6,8,8a-hexahydropyrano [3,4-][1,3]thiazin-2-amine]

- IC50 [1]: > 30 µM
SMILES: Cn1cc([C@H]2C[C@H]3[C@@H](CF)SC(N)=N[C@@]3(c3ccc(F)cc3F)CO2)cn1 [Compound 14, (4S,4aR,6R,8aS)-8a-(2,4-Difluorophenyl)-4-(fluoromethyl)-6-(1-methyl-1H-pyrazol-4-yl)-4,4a,5,6,8,8a-hexahydropyrano[3,4-d][1,3]thiazin-2-amine, Hydrochloride Salt]

- IC50 [1]: > 30 µM
SMILES: Cc1coc([C@H]2C[C@H]3[C@@H](C)SC(N)=N[C@@]3(c3ccc(F)cc3F)CO2)n1 [Compound 9, (4R,4aR,6R,8aS)-8a-(2,4-Difluorophenyl)-4-methyl-6-(4-methyloxazol-2-yl)-4,4a,5,6,8,8a-hexahydropyrano[3,4-d][1,3]thiazin-2-amine]

- improvement of BACE1 potency over compound 2 (BACE1): approximately 10 fold
SMILES: Cc1coc([C@H]2C[C@H]3CSC(N)=N[C@@]3(c3ccc(F)cc3F)CO2)n1 [Compound 3, (4aR,6R,8aS)-8a-(2,4-Difluorophenyl)-6-(4-methyloxazol-2-yl)-4,4a,5,6,8,8a-hexahydropyrano[3,4-d][1,3]thiazin-2-amine]

SMILES: CC1(C#Cc2cnc3c(c2)[C@]2(COC(N)=N2)c2cc(-c4cccnc4F)ccc2O3)COC1 [AMG-8718]
- finding in rat safety studies [2]: accumulation of autofluorescent material and degeneration of the retinal pigment epithelium (RPE) layer of the eye

SMILES: NC1=N[C@@]2(c3cc(NC(=O)c4ccc(F)cn4)ccc3F)COC[C@H]2CS1 [LY2886721]
- finding that terminated phase II study [4]: abnormal liver biochemical tests

- improvement of BACE1 potency over 1 (BACE1): ~2 fold
- LipE (BACE1; LipE = BACE1 CFA pIC50 – log D): 5.2
SMILES: NC1=N[C@@]2(c3ccc(F)cc3F)CO[C@@H](c3ncco3)C[C@H]2CS1 [Compound 2, (4aR,6R,8aS)-8a-(2,4-Difluorophenyl)-6-(oxazol-2-yl)-4,4a,5,6,8,8a-hexahydropyrano[3,4-d][1,3]thiazin-2-amine]
